Source: patent US5721207A, “Method for treatment of pain” (Innapharma, Inc., priority 1995, dated 1998)

Test system: rat
Test: Rat hot plate test, single intravenous elcatonin (Example 10)
Type: in vivo
Protocol: A total of 24 rats, ranging in weight from 320 to 420 g, was used in this study. Four to eight rats were used for each dose level. […] The doses used were 10, 30, 100 and 300 IU/kg (1.61, 4.83, 16.1 and 48.3 μg/kg, respectively).

## [Des-Cys^1,ASU^7 ]-Calcitonin, Eel [Elcatonin]
10.0 IU/kg (1.61 μg/kg) intravenous single, 0 hr (baseline)
  Hot Plate Latency (Mean ± SEM): 12.03 ± 1.02 s
10.0 IU/kg (1.61 μg/kg) intravenous single, 0.25 hr
  Hot Plate Latency (Mean ± SEM): 11.95 ± 1.40 s
10.0 IU/kg (1.61 μg/kg) intravenous single, 0.5 hr
  Hot Plate Latency (Mean ± SEM): 15.64 ± 2.39 s
10.0 IU/kg (1.61 μg/kg) intravenous single, 1 hr
  Hot Plate Latency (Mean ± SEM): 14.95 ± 2.92 s
10.0 IU/kg (1.61 μg/kg) intravenous single, 3 hr
  Hot Plate Latency (Mean ± SEM): 14.11 ± 0.94 s
10.0 IU/kg (1.61 μg/kg) intravenous single, 6 hr
  Hot Plate Latency (Mean ± SEM): 10.45 ± 1.03 s
10.0 IU/kg (1.61 μg/kg) intravenous single, 24 hr
  Hot Plate Latency (Mean ± SEM): 8.86 ± 1.23 s
30.0 IU/kg (4.83 μg/kg) intravenous single, 0 hr (baseline)
  Hot Plate Latency (Mean ± SEM): 10.71 ± 1.02 s
30.0 IU/kg (4.83 μg/kg) intravenous single, 0.25 hr
  Hot Plate Latency (Mean ± SEM): 10.04 ± 0.96 s
30.0 IU/kg (4.83 μg/kg) intravenous single, 0.5 hr
  Hot Plate Latency (Mean ± SEM): 12.18 ± 1.22 s
30.0 IU/kg (4.83 μg/kg) intravenous single, 1 hr
  Hot Plate Latency (Mean ± SEM): 14.14 ± 1.14 s
30.0 IU/kg (4.83 μg/kg) intravenous single, 3 hr
  Hot Plate Latency (Mean ± SEM): 14.26 ± 1.39 s
30.0 IU/kg (4.83 μg/kg) intravenous single, 6 hr
  Hot Plate Latency (Mean ± SEM): 15.12 ± 2.20 s
30.0 IU/kg (4.83 μg/kg) intravenous single, 24 hr
  Hot Plate Latency (Mean ± SEM): 10.76 ± 1.25 s
100.0 IU/kg (16.1 μg/kg) intravenous single, 0 hr (baseline)
  Hot Plate Latency (Mean ± SEM): 13.53 ± 1.63 s
100.0 IU/kg (16.1 μg/kg) intravenous single, 0.25 hr
  Hot Plate Latency (Mean ± SEM): 11.05 ± 1.99 s
100.0 IU/kg (16.1 μg/kg) intravenous single, 0.5 hr
  Hot Plate Latency (Mean ± SEM): 9.63 ± 1.21 s
100.0 IU/kg (16.1 μg/kg) intravenous single, 1 hr
  Hot Plate Latency (Mean ± SEM): 11.20 ± 1.95 s
100.0 IU/kg (16.1 μg/kg) intravenous single, 3 hr
  Hot Plate Latency (Mean ± SEM): 14.76 ± 1.19 s
100.0 IU/kg (16.1 μg/kg) intravenous single, 6 hr
  Hot Plate Latency (Mean ± SEM): 14.00 ± 1.83 s
100.0 IU/kg (16.1 μg/kg) intravenous single, 24 hr
  Hot Plate Latency (Mean ± SEM): 14.30 ± 1.33 s
300.0 IU/kg (48.3 μg/kg) intravenous single, 0 hr (baseline)
  Hot Plate Latency (Mean ± SEM): 11.22 ± 0.38 s
300.0 IU/kg (48.3 μg/kg) intravenous single, 0.25 hr
  Hot Plate Latency (Mean ± SEM): 11.05 ± 3.82 s
300.0 IU/kg (48.3 μg/kg) intravenous single, 0.5 hr
  Hot Plate Latency (Mean ± SEM): 11.65 ± 2.31 s
300.0 IU/kg (48.3 μg/kg) intravenous single, 1 hr
  Hot Plate Latency (Mean ± SEM): 12.65 ± 2.09 s
300.0 IU/kg (48.3 μg/kg) intravenous single, 3 hr
  Hot Plate Latency (Mean ± SEM): 17.37 ± 4.25 s
300.0 IU/kg (48.3 μg/kg) intravenous single, 6 hr
  Hot Plate Latency (Mean ± SEM): 11.55 ± 2.80 s
300.0 IU/kg (48.3 μg/kg) intravenous single, 24 hr
  Hot Plate Latency (Mean ± SEM): 10.52 s
At 0.5 hr
  intravenous dose producing a hot plate latency similar to 1.6 IU/kg (0.25 μg/kg) intrathecal: 10.0 IU/kg
intravenous, 10-300 IU/kg
  increase in hot plate latencies: only small increases in hot plate latencies
intravenous, 10 IU/kg
  time of peak effects: 30 min
intravenous, 10 to 300 IU/kg
  dose response effect: No significant dose response effect was observed
intravenous, 30-300 IU/kg
  time of peak effects: 180 to 360 min
